Source: ChEMBL document CHEMBL1833918, “Design and synthesis of potent, orally-active DGAT-1 inhibitors containing a dioxino[2,3-d]pyrimidine core” (Bioorg Med Chem Lett, 2011)
Calls of active or inactive are those of the source. The rule behind the calls is not given here.

Experiments:
[1] = Lipophilicity, log D of the compound at pH 7.4; type: physicochemical; details: buffer
[2] = Permeability of the compound; type: ADME; details: not told; read-out: permeability
Liver microsomes = assay: Stability of the compound in human liver microsomes at 10 uM after 30 mins in presence of glutathione ethyl ester; type: ADME, Microsome; details: 0.5 h
[3] = Clearance in rat; type: ADME, organism-based; details: in vivo
hERG (KCNH2) = hERG (KCNH2) (Homo sapiens, UniProt Q12809); assay: Inhibition of human ERG at 30 uM
Chain of hERG (KCNH2) (Q12809 whole entry): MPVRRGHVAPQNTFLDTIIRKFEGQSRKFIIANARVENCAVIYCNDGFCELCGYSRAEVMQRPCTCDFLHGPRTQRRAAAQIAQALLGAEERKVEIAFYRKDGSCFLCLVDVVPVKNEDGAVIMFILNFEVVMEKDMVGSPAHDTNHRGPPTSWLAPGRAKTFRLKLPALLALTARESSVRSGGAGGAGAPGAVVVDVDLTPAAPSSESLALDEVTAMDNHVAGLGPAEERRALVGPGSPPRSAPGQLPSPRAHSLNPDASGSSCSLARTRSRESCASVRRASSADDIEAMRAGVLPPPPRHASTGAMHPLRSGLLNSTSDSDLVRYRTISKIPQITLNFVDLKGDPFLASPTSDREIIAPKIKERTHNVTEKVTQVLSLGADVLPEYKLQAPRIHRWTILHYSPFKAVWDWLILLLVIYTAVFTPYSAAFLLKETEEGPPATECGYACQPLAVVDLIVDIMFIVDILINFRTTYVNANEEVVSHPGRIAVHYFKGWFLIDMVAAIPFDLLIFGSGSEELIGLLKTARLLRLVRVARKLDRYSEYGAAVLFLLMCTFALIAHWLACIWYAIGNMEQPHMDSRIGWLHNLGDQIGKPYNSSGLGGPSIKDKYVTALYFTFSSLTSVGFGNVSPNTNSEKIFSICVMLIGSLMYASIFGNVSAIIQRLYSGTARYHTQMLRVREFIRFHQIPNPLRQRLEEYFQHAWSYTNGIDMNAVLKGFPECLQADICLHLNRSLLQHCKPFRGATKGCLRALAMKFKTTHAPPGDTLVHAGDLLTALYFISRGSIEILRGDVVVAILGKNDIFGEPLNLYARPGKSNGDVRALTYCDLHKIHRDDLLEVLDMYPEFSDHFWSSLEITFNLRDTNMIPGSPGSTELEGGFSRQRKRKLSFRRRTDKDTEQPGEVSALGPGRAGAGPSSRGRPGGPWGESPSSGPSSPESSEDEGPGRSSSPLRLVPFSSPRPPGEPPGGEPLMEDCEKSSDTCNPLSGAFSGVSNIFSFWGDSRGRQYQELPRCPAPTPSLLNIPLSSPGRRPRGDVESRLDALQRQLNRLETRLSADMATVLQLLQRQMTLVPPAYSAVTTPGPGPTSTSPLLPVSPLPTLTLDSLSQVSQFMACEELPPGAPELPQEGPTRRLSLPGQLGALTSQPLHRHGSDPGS

Salmonella typhimurium = assay: Genotoxicity in Salmonella Typhimurium by Ames test; type: toxicity, organism-based; details: salmonella enterica subsp. enterica serovar typhimurium
Rattus norvegicus [4] = assay: Toxicity in rat assessed as clinical signs up to 500 mg/kg; type: organism-based; parameters: dose 500 mg/kg; details: in vivo
Rattus norvegicus [5] = assay: Toxicity in rat assessed as hematological signs up to 500 mg/kg; type: organism-based; parameters: dose 500 mg/kg; details: in vivo
Rattus norvegicus [6] = assay: Toxicity in rat assessed as histopathological signs up to 500 mg/kg; type: organism-based; parameters: dose 500 mg/kg; details: in vivo
Mus musculus [7] = species: Mus musculus; details: C57BL6J, 1 to 3 mg/kg
Description: Inhibition of triglyceride synthesis in a lipid challenged C57BL6J mouse at 1 to 3 mg/kg, po coadministered with bolus of lipid

Mus musculus [8] = assay: Inhibition of triglyceride synthesis in a lipid challenged C57BL6J mouse administered orally; type: functional; details: po

Row | SMILES | logD [1] | Papp [2] | Stability (Liver microsomes) | clearance [3] | inhibition at 30 µM (hERG (KCNH2)) | Activity (Salmonella typhimurium) | Activity (Rattus norvegicus [4]) | Activity (Rattus norvegicus [5]) | Activity (Rattus norvegicus [6]) | inhibition (Mus musculus [7]) | ED50 (Mus musculus [8])
1 | Nc1ncnc2c1C(=O)N(c1ccc([C@H]3CC[C@H](CC(=O)O)CC3)cc1)CCO2 [PF-04620110] | -0.15 |  |  |  |  |  |  |  |  |  | 
2 | Nc1ncnc2c1O[C@@H](c1ccc([C@H]3CC[C@H](CC(=O)O)CC3)cc1)CO2 | 0.74 | 7.7 ×10⁻⁶ cm/s | Unstable | 2 mL/min/kg | 8% | Non-toxic | Non-toxic | Non-toxic | Non-toxic | Active | 
3 | CC1(C)Oc2ncnc(N)c2N=C1c1ccc([C@H]2CC[C@H](CC(=O)O)CC2)cc1 |  |  |  |  |  |  |  |  |  |  | 0.3 mg/kg
